From ChEMBL document CHEMBL1201862, “PubChem BioAssay data set” (2004)
Blank lines part the entries; values can stand above or below the molecule they belong to. Activity calls are given as the source filed them.

How the values were obtained:
[1] = biological target: CAAX prenyl protease 2 (Saccharomyces cerevisiae S288c, UniProt Q03530); assay type: biochemical
[2] = biological target: CAAX prenyl protease 1 (Saccharomyces cerevisiae S288c, UniProt P47154); assay: yeast CAAX protease Ste24 inhibition – biochemical, S. cerevisiae, plate reader, cherry-pick, dose response (AID 488815)
CAAX prenyl protease 1, sequence (P47154 whole entry): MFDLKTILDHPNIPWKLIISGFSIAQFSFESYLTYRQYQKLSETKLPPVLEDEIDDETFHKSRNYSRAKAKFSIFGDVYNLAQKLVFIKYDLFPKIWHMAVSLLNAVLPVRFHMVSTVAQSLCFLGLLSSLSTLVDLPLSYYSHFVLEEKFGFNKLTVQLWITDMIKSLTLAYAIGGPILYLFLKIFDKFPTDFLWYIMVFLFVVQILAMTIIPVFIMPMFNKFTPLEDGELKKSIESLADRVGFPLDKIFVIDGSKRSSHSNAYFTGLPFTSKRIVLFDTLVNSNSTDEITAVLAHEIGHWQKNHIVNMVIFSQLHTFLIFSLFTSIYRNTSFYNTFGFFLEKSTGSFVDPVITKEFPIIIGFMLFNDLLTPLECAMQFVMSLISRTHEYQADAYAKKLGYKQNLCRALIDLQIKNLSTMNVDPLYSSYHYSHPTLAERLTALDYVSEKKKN

[3] = biological target: T1, Zinc finger protein mex-5 (Caenorhabditis elegans, UniProt Q9XUB2); assay: potency of MEX-5 RNA-binding blockers – biochemical, C. elegans, fluorescence polarization, dose response (AID 1960)
T1 sequence (Q9XUB2 whole entry): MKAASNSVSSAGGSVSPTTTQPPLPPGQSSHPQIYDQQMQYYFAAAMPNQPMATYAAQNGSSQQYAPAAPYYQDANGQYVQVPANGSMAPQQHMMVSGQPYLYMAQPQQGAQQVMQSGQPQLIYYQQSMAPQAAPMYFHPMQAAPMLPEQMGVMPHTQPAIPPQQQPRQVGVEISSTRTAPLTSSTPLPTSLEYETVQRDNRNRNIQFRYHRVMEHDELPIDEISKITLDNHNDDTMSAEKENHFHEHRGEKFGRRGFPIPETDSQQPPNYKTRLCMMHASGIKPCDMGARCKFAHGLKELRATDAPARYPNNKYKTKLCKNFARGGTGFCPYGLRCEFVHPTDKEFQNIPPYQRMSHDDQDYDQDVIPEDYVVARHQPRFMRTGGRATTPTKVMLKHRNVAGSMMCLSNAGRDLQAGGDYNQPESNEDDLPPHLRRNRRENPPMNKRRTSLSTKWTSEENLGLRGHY

[4] = biological target: T2, RNA-binding protein pos-1 (Caenorhabditis elegans, UniProt G5EF15); assay: disruptors of C. elegans POS-1 RNA interaction – biochemical, fluorescence polarization, dose response (AID 1964);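 also: purified POS-1 fused to maltose binding protein made in E. coli; potency of compounds blocking POS-1 binding to fluorescent RNA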
T2 sequence (G5EF15 whole entry): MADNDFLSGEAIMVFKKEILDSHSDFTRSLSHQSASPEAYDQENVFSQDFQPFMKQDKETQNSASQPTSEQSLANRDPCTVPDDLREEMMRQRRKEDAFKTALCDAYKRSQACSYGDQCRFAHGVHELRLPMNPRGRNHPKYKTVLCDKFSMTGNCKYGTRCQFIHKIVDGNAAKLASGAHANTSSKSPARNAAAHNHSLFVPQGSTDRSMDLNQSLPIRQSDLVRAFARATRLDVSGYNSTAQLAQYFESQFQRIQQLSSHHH

[5] = antibacterial activity against E. coli NEB5alpha – luminescence, counter-screen for MEX-5/POS-1 RNA-binding inhibitor project, dose response (AID 1959); assay type: functional
[6] = Counterscreen for AddAB inhibitors: absorbance-based bacterial cell-based high throughput dose response assay for inhibitors of bacterial viability. [Related pubchem assays (depositor defined):AID435030, AID449728, AID449731, AID488942, AID488955, AID488956]; assay type: functional
[7] = biological target: Exodeoxyribonuclease V (Escherichia coli (strain K12), UniProt P04993+P07648+P08394); assay: RecBCD inhibition via phage-restricted bacterial growth – absorbance, V66 E. coli, mutant T4 phage, counter-screen for AddAB inhibitor project, dose response (AID 492957); assay type: functional, cell-based, Escherichia coli str. K-12 substr. MG1655
Exodeoxyribonuclease V, sequence (P04993 whole entry): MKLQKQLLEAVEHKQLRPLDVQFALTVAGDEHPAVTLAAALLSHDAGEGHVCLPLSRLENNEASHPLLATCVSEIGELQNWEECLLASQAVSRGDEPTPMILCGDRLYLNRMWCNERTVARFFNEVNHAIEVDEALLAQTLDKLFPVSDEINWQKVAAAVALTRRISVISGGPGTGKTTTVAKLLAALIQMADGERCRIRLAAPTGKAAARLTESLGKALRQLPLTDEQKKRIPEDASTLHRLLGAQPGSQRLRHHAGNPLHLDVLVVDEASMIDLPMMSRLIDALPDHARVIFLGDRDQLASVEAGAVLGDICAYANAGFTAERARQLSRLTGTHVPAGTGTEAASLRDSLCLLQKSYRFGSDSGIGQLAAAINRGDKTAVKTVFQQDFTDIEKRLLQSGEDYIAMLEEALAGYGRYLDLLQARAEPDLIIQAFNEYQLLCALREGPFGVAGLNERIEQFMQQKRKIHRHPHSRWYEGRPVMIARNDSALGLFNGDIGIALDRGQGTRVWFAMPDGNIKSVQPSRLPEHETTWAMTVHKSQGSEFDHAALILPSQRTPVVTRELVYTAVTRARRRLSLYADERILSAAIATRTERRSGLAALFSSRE
Exodeoxyribonuclease V, sequence (P07648 whole entry): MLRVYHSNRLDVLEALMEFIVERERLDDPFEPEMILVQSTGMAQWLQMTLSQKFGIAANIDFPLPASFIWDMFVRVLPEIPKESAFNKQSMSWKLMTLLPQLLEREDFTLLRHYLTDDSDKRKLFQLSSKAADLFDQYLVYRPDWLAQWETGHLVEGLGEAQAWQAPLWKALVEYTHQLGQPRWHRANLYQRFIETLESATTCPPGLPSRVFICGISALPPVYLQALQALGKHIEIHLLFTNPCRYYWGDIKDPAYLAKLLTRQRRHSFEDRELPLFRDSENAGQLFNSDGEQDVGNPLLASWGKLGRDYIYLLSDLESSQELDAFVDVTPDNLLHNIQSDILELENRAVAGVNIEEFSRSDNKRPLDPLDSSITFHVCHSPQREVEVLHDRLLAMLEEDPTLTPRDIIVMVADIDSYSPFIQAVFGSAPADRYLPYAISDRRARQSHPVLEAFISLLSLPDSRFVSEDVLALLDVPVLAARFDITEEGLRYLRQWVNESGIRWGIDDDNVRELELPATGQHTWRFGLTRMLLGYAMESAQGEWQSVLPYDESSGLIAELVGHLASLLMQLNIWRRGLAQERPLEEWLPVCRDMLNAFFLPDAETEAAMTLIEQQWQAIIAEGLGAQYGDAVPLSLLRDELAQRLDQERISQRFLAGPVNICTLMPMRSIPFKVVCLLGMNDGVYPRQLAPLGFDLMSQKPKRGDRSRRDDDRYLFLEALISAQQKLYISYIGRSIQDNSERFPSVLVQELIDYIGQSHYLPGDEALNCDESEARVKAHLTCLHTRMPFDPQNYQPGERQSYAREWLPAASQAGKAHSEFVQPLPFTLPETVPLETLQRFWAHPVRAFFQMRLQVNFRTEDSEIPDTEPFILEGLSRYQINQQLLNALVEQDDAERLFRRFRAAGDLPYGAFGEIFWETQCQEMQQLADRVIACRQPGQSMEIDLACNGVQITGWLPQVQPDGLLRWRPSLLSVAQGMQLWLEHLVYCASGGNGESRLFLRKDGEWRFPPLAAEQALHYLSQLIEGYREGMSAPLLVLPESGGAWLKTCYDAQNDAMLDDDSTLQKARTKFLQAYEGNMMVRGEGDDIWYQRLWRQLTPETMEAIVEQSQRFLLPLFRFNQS
Exodeoxyribonuclease V, sequence (P08394 whole entry): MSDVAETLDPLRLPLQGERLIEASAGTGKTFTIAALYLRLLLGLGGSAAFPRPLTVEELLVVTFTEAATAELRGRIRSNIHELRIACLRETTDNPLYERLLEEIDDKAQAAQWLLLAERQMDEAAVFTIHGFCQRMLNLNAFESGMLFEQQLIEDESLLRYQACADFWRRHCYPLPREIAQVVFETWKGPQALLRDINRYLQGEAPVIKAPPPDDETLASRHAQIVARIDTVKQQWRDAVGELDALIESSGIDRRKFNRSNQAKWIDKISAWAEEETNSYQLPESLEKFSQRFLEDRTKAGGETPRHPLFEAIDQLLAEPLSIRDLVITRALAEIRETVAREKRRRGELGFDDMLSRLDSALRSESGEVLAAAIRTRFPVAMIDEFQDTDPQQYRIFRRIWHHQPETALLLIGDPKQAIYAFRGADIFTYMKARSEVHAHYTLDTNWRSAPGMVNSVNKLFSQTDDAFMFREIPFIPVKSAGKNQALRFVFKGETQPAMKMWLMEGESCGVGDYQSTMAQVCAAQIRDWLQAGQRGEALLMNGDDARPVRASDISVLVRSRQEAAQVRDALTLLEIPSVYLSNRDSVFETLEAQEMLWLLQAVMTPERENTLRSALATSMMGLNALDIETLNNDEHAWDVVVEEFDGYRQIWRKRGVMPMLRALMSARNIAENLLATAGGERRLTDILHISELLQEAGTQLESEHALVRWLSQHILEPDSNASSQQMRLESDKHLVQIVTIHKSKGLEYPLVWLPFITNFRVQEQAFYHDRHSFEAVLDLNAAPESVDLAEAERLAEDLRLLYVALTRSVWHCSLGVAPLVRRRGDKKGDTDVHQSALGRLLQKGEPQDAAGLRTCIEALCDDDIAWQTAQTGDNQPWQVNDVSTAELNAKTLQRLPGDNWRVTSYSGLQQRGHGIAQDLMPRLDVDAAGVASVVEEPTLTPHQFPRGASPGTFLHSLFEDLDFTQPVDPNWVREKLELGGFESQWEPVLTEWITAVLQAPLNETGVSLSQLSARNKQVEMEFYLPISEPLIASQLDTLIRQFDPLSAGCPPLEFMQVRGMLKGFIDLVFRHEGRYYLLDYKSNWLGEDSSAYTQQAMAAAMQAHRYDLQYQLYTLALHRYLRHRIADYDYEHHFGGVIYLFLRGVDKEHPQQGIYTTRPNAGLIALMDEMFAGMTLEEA

[8] = test system: HEK293; assay: NOD2 signaling inhibitors in MDP-stimulated cells, cell-based, uHTS, luminescence (AID 2001); assay type: functional; settings: Homo sapiens
[9] = test system: HEK293; assay: cells; assay type: functional, cell-based; settings: Homo sapiens
[10] = biological target: Tumor necrosis factor (Homo sapiens, UniProt P01375); assay: analog potency on TNFa NF-kB signaling – cell-based, revised, SAR follow-up (AID 2337); assay type: functional
Tumor necrosis factor, sequence (P01375 whole entry): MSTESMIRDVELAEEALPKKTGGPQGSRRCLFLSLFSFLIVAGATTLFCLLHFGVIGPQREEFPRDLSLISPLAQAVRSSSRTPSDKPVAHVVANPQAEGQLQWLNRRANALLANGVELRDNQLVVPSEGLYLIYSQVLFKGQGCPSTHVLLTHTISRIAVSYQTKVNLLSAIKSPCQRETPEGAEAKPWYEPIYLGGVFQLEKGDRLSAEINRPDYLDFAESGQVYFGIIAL

[11] = test system: HEK293; assay: cells; settings: Homo sapiens
[12] = test system: HEK293; assay: cells; assay type: functional, cell-based; settings: Homo sapiens; remark: listed apart in the source
[13] = test system: HEK293; assay: cells; assay type: functional, cell-based; settings: Homo sapiens; remark: listed apart in the source
[14] = biological target: T3, Nucleotide-binding oligomerization domain-containing protein 2 (Homo sapiens, UniProt Q9HC29); assay: inhibition of NOD2-driven NF-kB reporter – cell-based, luminescence, uHTS, HEK293 (AID 1566); assay type: functional
T3 sequence (Q9HC29 whole entry, the tested form may be a part): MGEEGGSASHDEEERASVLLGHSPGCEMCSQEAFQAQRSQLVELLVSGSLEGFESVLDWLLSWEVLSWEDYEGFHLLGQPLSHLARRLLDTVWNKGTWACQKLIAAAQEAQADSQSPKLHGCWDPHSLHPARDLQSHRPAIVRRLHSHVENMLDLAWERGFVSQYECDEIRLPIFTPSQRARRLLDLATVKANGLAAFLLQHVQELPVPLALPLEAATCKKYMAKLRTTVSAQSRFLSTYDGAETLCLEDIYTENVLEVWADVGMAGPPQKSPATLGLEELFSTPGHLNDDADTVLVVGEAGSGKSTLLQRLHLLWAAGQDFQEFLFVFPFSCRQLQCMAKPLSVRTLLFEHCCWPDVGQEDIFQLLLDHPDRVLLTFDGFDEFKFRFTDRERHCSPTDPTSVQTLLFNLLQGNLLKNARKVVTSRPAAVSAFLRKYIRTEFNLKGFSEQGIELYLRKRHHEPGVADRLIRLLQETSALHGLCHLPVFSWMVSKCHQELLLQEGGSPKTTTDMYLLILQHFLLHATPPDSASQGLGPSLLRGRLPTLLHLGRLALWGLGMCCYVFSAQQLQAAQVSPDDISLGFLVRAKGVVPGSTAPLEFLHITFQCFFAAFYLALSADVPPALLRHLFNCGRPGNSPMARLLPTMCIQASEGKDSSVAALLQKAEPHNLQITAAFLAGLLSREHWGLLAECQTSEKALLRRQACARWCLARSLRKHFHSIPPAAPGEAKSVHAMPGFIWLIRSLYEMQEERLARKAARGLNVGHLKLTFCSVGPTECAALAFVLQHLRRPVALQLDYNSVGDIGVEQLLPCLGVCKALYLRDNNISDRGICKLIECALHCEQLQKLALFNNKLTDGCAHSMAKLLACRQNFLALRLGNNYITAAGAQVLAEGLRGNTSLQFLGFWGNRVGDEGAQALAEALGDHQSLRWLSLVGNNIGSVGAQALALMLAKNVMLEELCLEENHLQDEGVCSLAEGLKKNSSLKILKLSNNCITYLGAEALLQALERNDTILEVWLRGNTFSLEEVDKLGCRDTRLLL

[15] = biological target: T3, Nucleotide-binding oligomerization domain-containing protein 2; assay: PubChem AID 2334; assay type: functional
[16] = biological target: T4, Nucleotide-binding oligomerization domain-containing protein 1 (Homo sapiens, UniProt Q9Y239); assay: blockers of NOD1 pathway activity – revised, SAR follow-up (AID 2333); assay type: functional
T4 sequence (Q9Y239 whole entry): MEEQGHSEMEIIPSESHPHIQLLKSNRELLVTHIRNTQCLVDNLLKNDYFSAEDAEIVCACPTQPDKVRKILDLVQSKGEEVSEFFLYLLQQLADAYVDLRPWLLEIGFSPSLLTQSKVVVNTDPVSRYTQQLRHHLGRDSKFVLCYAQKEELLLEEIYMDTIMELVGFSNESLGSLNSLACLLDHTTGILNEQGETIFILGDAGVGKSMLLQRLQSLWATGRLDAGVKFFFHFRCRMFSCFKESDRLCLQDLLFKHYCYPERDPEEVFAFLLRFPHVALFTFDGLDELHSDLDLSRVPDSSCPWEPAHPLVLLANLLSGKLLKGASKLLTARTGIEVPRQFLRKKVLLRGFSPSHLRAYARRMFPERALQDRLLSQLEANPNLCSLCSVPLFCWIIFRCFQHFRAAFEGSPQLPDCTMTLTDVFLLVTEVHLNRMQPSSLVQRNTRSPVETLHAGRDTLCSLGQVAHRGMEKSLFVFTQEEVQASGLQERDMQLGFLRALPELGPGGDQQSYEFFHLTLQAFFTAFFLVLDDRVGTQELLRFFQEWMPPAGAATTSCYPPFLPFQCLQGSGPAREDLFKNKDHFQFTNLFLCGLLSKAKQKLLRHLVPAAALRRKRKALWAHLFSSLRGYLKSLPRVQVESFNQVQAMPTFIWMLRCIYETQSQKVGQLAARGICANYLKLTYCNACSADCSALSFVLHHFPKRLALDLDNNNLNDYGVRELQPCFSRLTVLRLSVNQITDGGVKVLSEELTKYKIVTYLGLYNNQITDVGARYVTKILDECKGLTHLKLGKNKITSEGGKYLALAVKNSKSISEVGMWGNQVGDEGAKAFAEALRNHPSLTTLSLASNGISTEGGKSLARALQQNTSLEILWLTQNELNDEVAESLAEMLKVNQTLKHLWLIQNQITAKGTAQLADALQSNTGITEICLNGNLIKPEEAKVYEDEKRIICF

[17] = test system: HEK293; assay: inhibition of NOD1-driven NF-kB reporter – cell-based, luminescence, uHTS, primary screen (AID 1578); assay type: functional; settings: Homo sapiens

CAAX prenyl protease 2, sequence (Q03530 whole entry): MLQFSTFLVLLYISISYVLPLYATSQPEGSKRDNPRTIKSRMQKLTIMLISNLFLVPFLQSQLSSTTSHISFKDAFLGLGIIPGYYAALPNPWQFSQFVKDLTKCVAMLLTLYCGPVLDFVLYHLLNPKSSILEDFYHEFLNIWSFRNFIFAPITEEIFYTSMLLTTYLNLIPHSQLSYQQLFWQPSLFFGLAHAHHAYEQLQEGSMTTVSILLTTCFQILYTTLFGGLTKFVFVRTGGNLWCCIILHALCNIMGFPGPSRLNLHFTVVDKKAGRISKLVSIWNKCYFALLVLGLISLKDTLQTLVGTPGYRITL

AC50 [1]: > 100 µM (inactive) | AC50 [2]: 26.5 µM (active)
Structure (SMILES): Cc1ccc2c(C)c(C(=O)N(Cc3ccc(F)cc3)C3CCS(=O)(=O)C3)oc2c1 (configuration not stated)

Structure (SMILES): COc1ccc2[nH]c3c(c2c1)CCNC3c1ccc([N+](=O)[O-])o1 (configuration not stated)
EC50 [3]: 4.34 µM (inconclusive) | EC50 [4]: 5.82 µM (inconclusive) | EC50 [5]: 34.1 µM (active) | IC50 [6]: > 119 µM (inactive) | IC50 [7]: > 119 µM (inactive)

Structure (SMILES): COc1ccc(NC(C)=O)cc1S(=O)(=O)Nc1ccc(OCc2ccccc2)cc1
IC50 [8]: > 20 µM (inactive) | IC50 [9]: > 20 µM (inactive) | IC50 [10]: 18 µM (active) | IC50 [11]: > 20 µM (inactive) | IC50 [12]: > 20 µM (inactive) | IC50 [13]: > 20 µM (inactive) | EC50 [14]: 12.3 µM (active) | IC50 [15]: 16.6 µM (active) | IC50 [16]: 12.7 µM (active) | EC50 [17]: 13.7 µM (active)
